These results are taken from patent US5843887A, “Compositions for delivery of polypeptides, and methods” (Allied Medical Research Associates, priority 1994, dated 1998).

The conditions of data set [1]: pH of 8, in the presence of trypsin; cited from earlier work.
In a further data set the test system is blood glucose level. In words: oral administration of IF and/or porcine insulin to mice, blood glucose level. It counts as in vivo. Particulars: administered orally (summary statement). The procedure:
The IF was substantially free of R-protein and prepared as in Example 1. […] Blood glucose level was measured with a blood glucose meter standard model Tracer (Boehringer) and produced the following results.

The next data set has as its system serum glucose. In words: IF and insulin injected into the sutured duodenal cavity of mice, serum glucose. It is filed as in vivo. Particulars: 50 mg IF and 4 I.U. insulin, decreases up until death, depending on the dose. The procedure: 10 g IF (dosage of 300 Units per mg; one unit will bind one nanogram of vitamin B12) was added to 1 liter of 0.02M phosphate buffered solution and stirred up to 37° C. […] The solution (with a prefered pH of about 6) was stirred at a temperature of 37° C. for 24 hours. The product was then dialysed at 4° C. and dehydrated by lyophilization.

The conditions of data set [2]: doses of 100 to 500 μg, as in pernicious anemia; cited from earlier work.

Turning to “IF: glycoprotein with a molecular weight of 50 kDa, 351 amino acids, binds cobalamin”, the “affinity for cobalamin relative to that of R protein” value in data set [1] is 150 times.

Regarding insulin, the “change in serum glucose after oral administration” value in the data set on blood glucose level was “no change in serum glucose”.

Consider “Insulin alone: human biogenetic insulin (Novo Nordisk) of Example 1, injected alone”, for which the “change in serum glucose” value in the data set on serum glucose is “did not cause a fall in serum glucose”.

Take cyanocobalamin: the “fraction of dose absorbed (passive absorption)” value in data set [2] is given as 1%.
